Test results as given in patent publication US12264134B2 (Merck Sharp & Dohme LLC, priority 2018, dated 2025).

Each compound was assayed against IDO1 (Homo sapiens, UniProt P14902) (assay: IDO1 Cellular Assay in HeLa Cells Stimulated with IFNγ). Details: read-out: HeLa Cell Potency, IC50.
Type: cell-based

IDO1, sequence (P14902 whole entry): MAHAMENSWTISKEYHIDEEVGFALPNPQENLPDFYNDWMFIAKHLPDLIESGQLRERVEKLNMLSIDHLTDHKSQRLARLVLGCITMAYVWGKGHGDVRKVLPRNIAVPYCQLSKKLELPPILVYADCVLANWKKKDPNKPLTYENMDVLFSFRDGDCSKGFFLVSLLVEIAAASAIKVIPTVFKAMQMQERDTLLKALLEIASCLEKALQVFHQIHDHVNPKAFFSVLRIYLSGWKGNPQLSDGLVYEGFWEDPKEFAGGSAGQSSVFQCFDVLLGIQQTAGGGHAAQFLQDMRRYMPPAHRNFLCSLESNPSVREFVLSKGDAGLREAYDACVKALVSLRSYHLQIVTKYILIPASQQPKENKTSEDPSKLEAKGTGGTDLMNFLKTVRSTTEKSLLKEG

| IC50 [nM] | SMILES |
| --- | --- |
| 126 | Cc1ccc(N2CCN(C(=O)Cn3nc(C(=O)N4C[C@@H](C)O[C@@H](C)C4)c4c3CCC4)CC2)c(F)c1 [Example 56, 2-{3-[(2R,6S)-2,6-dimethylmorpholine-4-carbonyl]-5,6-dihydrocyclopenta[c]pyrazol-1(4H)-yl}-1-[4-(2-fluoro-4-methylphenyl)piperazin-1-yl]ethan-1-one] |
| 447 | C[C@@H]1CN(C(=O)c2nn(CC(=O)N3CCN(c4ccc(F)c(C(F)F)c4)CC3)c3c2CCC3)C[C@H](C)O1 [Example 58, 1-{4-[3-(difluoromethyl)-4-fluorophenyl]piperazin-1-yl}-2-{3-[(2R,6S)-2,6-dimethylmorpholine-4-carbonyl]-5,6-dihydrocyclopenta[c]pyrazol-1(4H)-yl}ethan-1-one] |
| 319 | C[C@@H]1CN(C(=O)c2nn(CC(=O)N3CCN(c4ccccc4C4CC4)CC3)c3c2CCC3)C[C@H](C)O1 [Example 59, 1-[4-(2-cyclopropylphenyl)piperazin-1-yl]-2-{3-[(2R,6S)-2,6-dimethylmorpholine-4-carbonyl]-5,6-dihydrocyclopenta[c]pyrazol-1(4H)-yl}ethan-1-one] |
| 209 | CCc1cccc(N2CCN(C(=O)Cn3nc(C(=O)N4C[C@@H](C)O[C@@H](C)C4)c4c3CCC4)CC2)c1 [Example 60, 2-{3-[(2R,6S)-2,6-dimethylmorpholine-4-carbonyl]-5,6-dihydrocyclopenta[c]pyrazol-1(4H)-yl}-1-[4-(3-ethylphenyl)piperazin-1-yl]ethan-1-one] |
| 65.6 | Cc1ccc(N2CCN(C(=O)Cn3nc(C(=O)N4C[C@@H](C)O[C@@H](C)C4)c4c3CCC4)CC2)cc1Cl [Example 61, 1-[4-(3-chloro-4-methylphenyl)piperazin-1-yl]-2-{3-[(2R,6S)-2,6-dimethylmorpholine-4-carbonyl]-5,6-dihydrocyclopenta[c]pyrazol-1(4H)-yl}ethan-1-one] |
| 146 | COc1cc(F)c(N2CCN(C(=O)Cn3nc(C(=O)N4C[C@@H](C)O[C@@H](C)C4)c4c3CCC4)CC2)cc1F [Example 62, 1-[4-(2,5-difluoro-4-methoxyphenyl)piperazin-1-yl]-2-{3-[(2R,6S)-2,6-dimethylmorpholine-4-carbonyl]-5,6-dihydrocyclopenta[c]pyrazol-1(4H)-yl}ethan-1-one] |
| 335 | COc1c(C#N)cccc1N1CCN(C(=O)Cn2nc(C(=O)N3C[C@@H](C)O[C@@H](C)C3)c3c2CCC3)CC1 [Example 63, 3-[4-({3-[(2R,6S)-2,6-dimethylmorpholine-4-4-carbonyl]-5,6-dihydrocyclopenta[c]pyrazol-1(4H)-yl}acetyl)piperazin-1-yl]-2-methoxybenzonitrile] |
| 30.4 | Cc1ccc(N2CCN(C(=O)Cn3nc(C(=O)N4C[C@@H](C)O[C@@H](C)C4)c4c3CCC4)CC2)cc1F [Example 64, 2-{3-[(2R,6S)-2,6-dimethylmorpholine-4-carbonyl]-5,6-dihydrocyclopenta[c]pyrazol-1(4H)-yl}-1-[4-(3-fluoro-4-methylphenyl)piperazin-1-yl]ethan-1-one] |
| 145 | COc1c(F)cccc1N1CCN(C(=O)Cn2nc(C(=O)N3C[C@@H](C)O[C@@H](C)C3)c3c2CCC3)CC1 [Example 65, 2-{3-[(2R,6S)-2,6-dimethylmorpholine-4-carbonyl]-5,6-dihydrocyclopenta[c]pyrazol-1(4H)-yl}-1-[4-(3-fluoro-2-methoxyphenyl)piperazin-1-yl]ethan-1-one] |
| 133 | C[C@@H]1CN(C(=O)c2nn(CC(=O)N3CCN(c4ccc(Cl)cc4Cl)CC3)c3c2CCC3)C[C@H](C)O1 [Example 67, 1-[4-(2,4-dichlorophenyl)piperazin-1-yl]-2-{3-[(2R,6S)-2,6-dimethylmorpholine-4-carbonyl]-5,6-dihydrocyclopenta[c]pyrazol-1(4H)-yl}ethan-1-one] |
| 12.1 | C[C@@H]1CN(C(=O)c2nn(CC(=O)N3CCN(c4cccc(Cl)c4Cl)CC3)c3c2CCC3)C[C@H](C)O1 [Example 69, 1-[4-(2,3-dichlorophenyl)piperazin-1-yl]-2-{3-[(2R,6S)-2,6-dimethylmorpholine-4-carbonyl]-5,6-dihydrocyclopenta[c]pyrazol-1(4H)-yl}ethan-1-one] |
